System: C. subellipsoidea
Experiment: Paraoxon hydrolysis in C. subellipsoidea cultures assayed by p-nitrophenol production (absorbance 408 nm)
Type: cell-based, Coccomyxa subellipsoidea
Details: for hydrolysis of paraoxon into p-nitrophenol with oligomycin and rotenone in the dark: oligomycin 20 μg/mL and rotenone 20 μg/mL together, samples at 12 h, 24 h, 48 h

Row | SMILES | effect on paraoxon hydrolysis, DCMU and paraoxon in the light (actively growing cultures, light) | production of p-nitrophenol from paraoxon in the presence of DCMU (paraoxon 0.25 mg/mL, 12 h, light, versus absence of DCMU) | hydrolysis of paraoxon into p-nitrophenol with oligomycin and rotenone in the dark (paraoxon 0.25 mg/mL)
1 | CN(C)C(=O)Nc1ccc(Cl)c(Cl)c1 [DCMU, 3-(3,4-dichlorophenyl)-1,1-dimethylurea] | blocked hydrolysis | decreased nearly two-fold | 
2 | CC[C@H]1/C=C/C=C/C[C@@H](C)[C@H](O)[C@@](C)(O)C(=O)[C@@H](C)[C@H](O)[C@@H](C)C(=O)[C@@H](C)[C@H](O)[C@@H](C)/C=C/C(=O)O[C@@H]2[C@H](C)[C@H](CC1)O[C@]1(CC[C@H](C)[C@H](C[C@@H](C)O)O1)[C@H]2C [oligomycin] |  |  | not hydrolyzed
3 | C=C(C)[C@H]1Cc2c(ccc3c2O[C@@H]2COc4cc(OC)c(OC)cc4[C@@H]2C3=O)O1 [rotenone] |  |  | not hydrolyzed

— patent US11485657B2, “Biological remediation of groundwater using an algal photobioreactor system” (priority 2019, dated 2022)
